{
  "source": "patent US20260097106A1",
  "about": "“AVIRULENT LIVE BACTERIAL VACCINES CURED OF PLASMIDS CONTAINING ANTIMICROBIAL RESISTANCE GENES” (Drs. Koehnk & Feldman, LLP, priority 2022, published 2026)",
  "assay_type_in_all_cases": "cell-based, E. coli",
  "key": {"[1]": {"tested_on": "MS-K88-030321HM-PC2BSRAK88", "test": "Growth on blood agar containing 16 μg/ml tetracycline HCl", "settings": "18 hours at 37° C.", "description": "(§1) Comparison of tetracycline resistance between Edema Vac F18 cells cured of plasmids that contain AMR genes (MS060520HM-PCISRAF18) and Entero Vac K88 cells cured of plasmids that contain AMR genes (MS-K88-030321HM-PC2BSRAK88) was performed as follows: preparing subcultures of MS060520HM-PCISRAF18 and MS-K88-030321HM-PC2BSRAK88 on blood agar containing 16 μg/ml tetracycline HCl, incubating for 18 hours at 37° C., and observing haemolytic growth."}, "[2]": {"tested_on": "MS060520HM-PCISRAF18", "test": "Growth on blood agar containing 16 μg/ml tetracycline HCl", "settings": "18 hours at 37° C.", "description": "as §1"}, "[3]": {"tested_on": "MS060520HM-PCISRAF18 cells", "test": "Tetracycline HCl serial dilution in TSB media, turbidity", "description": "Further evaluation of tetracycline sensitivity of cured MS060520HM-PCISRAF 18 cells was performed as follows: inoculating 10 ml of TSB media with MS060520HM-PCISRAF18 cells, incubating at 37° C. for 22 hours on orbital shaker at 150 rpm, preparing 1:1 serial dilutions of 5 ml tetracycline HCL in TSB media (from stock of 640 mg tetracycline HCl in 5 ml ultrapure water), inoculating the serial dilutions with 10 ul of the fermentate."}, "[4]": {"tested_on": "MS112101HM-AMR5 (Edema Vac F18 transformed with AMR5 plasmid)", "test": "AMR disc testing on Mueller Hinton agar plates", "settings": "antibiotic disc, Mueller Hinton plates", "description": "(§2) AMR testing was performed comparing MS112101HM—SR, MS112101HM-AMR5, and MS112101HM-competent cells cultured on Mueller Hinton agar plates using Sulfatrim (SXT), Tetracycline (TE 30), Neomycin (NE 30), Sulfathiazine (ST 0.25), and Gentamicin (GM 10) discs."}, "[5]": {"tested_on": "MS112101HM-SR (Edema Vac F18 cells cured of plasmids that contain AMR genes)", "test": "AMR disc testing on Mueller Hinton agar plates", "description": "as §2"}, "[6]": {"tested_on": "MS112101HM-competent (competent Edema Vac F18 cells)", "test": "AMR disc testing on Mueller Hinton agar plates", "settings": "antibiotic disc", "description": "as §2"}, "[7]": {"tested_on": "ECMS091703HM-competent (competent Entero Vac K88 cells)", "test": "AMR disc testing on Mueller Hinton agar plates", "settings": "antibiotic disc", "description": "(§3) AMR testing was performed comparing ECMS091703HM-SR and ECMS091703HM-competent cells cultured on Mueller Hinton agar plates using Neomycin (NE 30) and Sulfathiazine (ST 0.25) discs. A master plate of ECMS091703HM-SR was produced as follows: subculturing a colony of ECMS091703HM-SR from LB agar containing 5% sucrose on new LB agar containing 5% sucrose, incubating overnight at 37° C., and storing sealed at 2-8° C."}, "[8]": {"tested_on": "ECMS091703HM-SR (Entero Vac K88 cells cured of plasmids that contain AMR genes)", "test": "AMR disc testing on Mueller Hinton agar plates", "description": "as §3"}},
  "data": [
    {"compound": "CN(C)[C@@H]1C(O)=C(C(N)=O)C(=O)[C@@]2(O)C(O)=C3C(=O)c4c(O)cccc4[C@@](C)(O)[C@H]3C[C@@H]12.Cl", "note": "[Tet HCl, Tetracycline HCL]", "values": [
      {"measurement": "Tetracycline resistance (haemolytic growth)", "setting": "[1]", "value": "did not display any tetracycline resistance"},
      {"measurement": "Tetracycline resistance (haemolytic growth)", "setting": "[2]", "value": "confirmed tetracycline resistance"},
      {"measurement": "Turbidity 8 hours post inoculation", "setting": "[3]; Tet HCl 2 μg/ml in TSB media", "value": "Pos"},
      {"measurement": "Turbidity 24 hours post inoculation", "setting": "[3]; Tet HCl 2 μg/ml in TSB media", "value": "Pos"},
      {"measurement": "Turbidity 8 hours post inoculation", "setting": "[3]; Tet HCl 4 μg/ml in TSB media", "value": "Pos"},
      {"measurement": "Turbidity 24 hours post inoculation", "setting": "[3]; Tet HCl 4 μg/ml in TSB media", "value": "Pos"},
      {"measurement": "Turbidity 8 hours post inoculation", "setting": "[3]; Tet HCl 8 μg/ml in TSB media", "value": "Pos"},
      {"measurement": "Turbidity 24 hours post inoculation", "setting": "[3]; Tet HCl 8 μg/ml in TSB media", "value": "Pos"},
      {"measurement": "Turbidity 8 hours post inoculation", "setting": "[3]; Tet HCl 16 μg/ml in TSB media", "value": "Pos"},
      {"measurement": "Turbidity 24 hours post inoculation", "setting": "[3]; Tet HCl 16 μg/ml in TSB media", "value": "Pos"},
      {"measurement": "Turbidity 8 hours post inoculation", "setting": "[3]; Tet HCl 32 μg/ml in TSB media", "value": "Pos"},
      {"measurement": "Turbidity 24 hours post inoculation", "setting": "[3]; Tet HCl 32 μg/ml in TSB media", "value": "Pos"},
      {"measurement": "Turbidity 8 hours post inoculation", "setting": "[3]; Tet HCl 64 μg/ml in TSB media", "value": "Slight"},
      {"measurement": "Turbidity 24 hours post inoculation", "setting": "[3]; Tet HCl 64 μg/ml in TSB media", "value": "Pos"},
      {"measurement": "Turbidity 8 hours post inoculation", "setting": "[3]; Tet HCl 128 μg/ml in TSB media", "value": "Neg"},
      {"measurement": "Turbidity 24 hours post inoculation", "setting": "[3]; Tet HCl 128 μg/ml in TSB media", "value": "Pos"},
      {"measurement": "Concentration with inhibited growth", "setting": "[3]; tetracycline HCl in TSB media", "value": 128, "unit": "µg/mL"}
    ]},
    {"compound": "Sulfathiazine [ST 0.25]", "values": [
      {"measurement": "Ring measurement (radius, mm)", "setting": "[4]", "value": 18, "unit": "mm"},
      {"measurement": "Ring measurement (radius, mm)", "setting": "[5]; antibiotic disc, Mueller Hinton plates, MS112101HM-SR", "value": 15, "unit": "mm"},
      {"measurement": "Resistance of the strain to the antibiotic (in words)", "setting": "[5]; disc test, MS112101HM-SR compared with MS112101HM-competent", "value": "less resistance"},
      {"measurement": "Ring measurement (radius, mm)", "setting": "[6]", "value": 0, "unit": "mm"},
      {"measurement": "Ring measurement (radius, mm)", "setting": "[7]", "value": 13, "unit": "mm"},
      {"measurement": "Ring measurement (radius, mm)", "setting": "[8]; antibiotic disc, Mueller Hinton plates, ECMS091703HM-SR", "value": 20, "unit": "mm"},
      {"measurement": "Resistance of the strain to the antibiotic (in words)", "setting": "[8]; disc test, ECMS091703HM-SR compared with ECMS091703HM-competent", "value": "less resistance"}
    ]}
  ]
}
